# Measurements published in US20180208622A1, “STABLE CRYSTALLINE FORM OF REGADENOSON” (SUN PHARMACEUTICAL INDUSTRIES LIMITED, priority 2015, published 2018).
# Columns and labels:
# [1] = WO2008143667A1, cited from earlier work
# [2] = Stability studies of crystal Form S, followed by XRPD; assay type: physicochemical
# Description: XRD: X-ray powder diffraction analyses were carried out on a PANalytical Empyrean X-ray powder diffractometer using Cu K alpha radiation. The instrument was equipped with a line focus X-ray tube, and the voltage and amperage were set to 45 kV and 40 mA respectively. The scanning rate was set as 10 second per step and step size is set as 0.01°. The diffractometer was equipped with Pixcel^1D solid state detector and rotating sample stage. X-ray diffractometer was used to record diffractogram from 4° to 40° (2-theta).
smiles,measurement,setting,value
"CNC(=O)c1cnn(-c2nc(N)c3ncn([C@@H]4O[C@H](CO)[C@@H](O)[C@H]4O)c3n2)c1 [Form A, adenosine, 2-[4-[(methylamino)carbonyl]-1H-pyrazol-1-yl]]",stability of the crystalline form,"[1]; among Form A, Form B, Form C and amorphous product",most stable form
"CNC(=O)c1cnn(-c2nc(N)c3ncn([C@@H]4O[C@H](CO)C(O)C4O)c3n2)c1 (some centres unmarked) [Form S, adenosine, 2-[4-[(methylamino)carbonyl]-1H-pyrazol-1-yl]]",change in XRPD under stability conditions,[2]; 25° C. and 60% relative humidity for more than 6 months (FIG. 3),no significant change
same,change in XRPD in accelerated stability studies,[2]; 40° C. and 75% relative humidity for more than 2 months (FIG. 2),did not change significantly
same,stability when stored,[2]; stored at 25° C. and 60% relative humidity for at least 6 months,stable
"CNC(=O)c1cnn(-c2nc(N)c3ncn([C@@H]4O[C@H](CO)[C@@H](O)[C@H]4O)c3n2)c1 [polymorph C, adenosine, 2-[4-[(methylamino)carbonyl]-1H-pyrazol-1-yl]]",behaviour at elevated temperatures,[1]; elevated temperatures,desolvates to an unstable form
